From patent US7163921B1, “Peptide derivatives and medicinal compositions” (Nippon Shinyaku Co., Ltd., priority 2000, dated 2007)
Marks after values point to notes of the source that are not given here.

Experiments:
[1] = target: T1, human μ receptor (Homo sapiens, UniProt P35372); assay: μ Receptor binding test ([3H] diprenorphine displacement); settings: Ki for μ receptor divided by Ki for nociceptin receptor
T1 construct: purchased Receptor Biology
Procedure: A human μ receptor-expressing cell membrane preparation (Receptor Biology) was adjusted at the membrane protein level of 8.5 μg/mL in a Tris buffer [50 mM Tris-HCl (pH 7.8), 5 mM MgCl2, 1 mM EGTA, 0.1% BSA]. To this suspension, [^3H] diprenorphine (diluted to the final concentration of 0.13 nM in the Tris buffer) and a test substance were added, and the mixture was incubated at 25° C. for 90 minutes. Using a cell harvester and a washing solution [50 mM Tris-HCl (pH 7.8), 4° C.], the membrane was recovered onto the GF/B filter which had been pretreated with 0.3% PEI, and washed further 4 times. The filter was transferred into a vial, to which a scintillator was added, and then the radioactivity was measured using a liquid scintillation counter. A non-specific binding was regarded as a binding in the presence of 100 μM naloxone, and the difference between the total binding and the non-specific binding was regarded as the specific binding. Based on the % binding inhibition in the presence of a test substance, the IC50 was obtained and employed together with the Kd value of the [^3H] diprenorphine to calculate the Ki value of the test substance (mol/L; hereinafter referred to as M value). The M value was divided by the N value obtained in Test Example 1 to judge the selectivity of the receptor binding of the test substance.

[2] = tested on: Male mice (ddY); assay: Mouse formalin test; format: in vivo
Procedure: Male mice (ddY; 4 to 5 weeks old) were kept at a room temperature of 21 to 25° C. and a humidity of 45 to 65% in a cage having a 12-hour light/12-hour dark cycle while being fed with feed and water ad libitum, whereby being acclimatized for a period of 1 week or longer. 6 Animals in each group were employed.
The compound of Example 1 was dissolved in physiological saline. Each mouse was placed in a cylindrical tube whose diameter was about 4 cm, immobilized at its tail, and a 27G needle connected to a 1 mL syringe was inserted into its tail vein, via which 0.1 mL/10 g body weight of the drug solution was administered rapidly. In a control group, physiological saline was administered. After administration, an absorbent cotton was used for hemostasis, and the animal was returned to the observation cage. The dose of the compound of Example 1 was 1 mg or 3 mg per 1 kg body weight of each mouse.
Subsequently, each mouse was acclimatized sufficiently to the observation cage, and then placed in a retainer for the drug administration. 20 μL of a 1% formalin solution was subcutaneously administered into the plantar region of the hindpaw, and the mouse was returned to the observation cage, and examined for the duration of any aversive behavior such as licking or biting the administered hindpaw extremity over a period of 30 minutes using a stopwatch.

T1 sequence (P35372 whole entry): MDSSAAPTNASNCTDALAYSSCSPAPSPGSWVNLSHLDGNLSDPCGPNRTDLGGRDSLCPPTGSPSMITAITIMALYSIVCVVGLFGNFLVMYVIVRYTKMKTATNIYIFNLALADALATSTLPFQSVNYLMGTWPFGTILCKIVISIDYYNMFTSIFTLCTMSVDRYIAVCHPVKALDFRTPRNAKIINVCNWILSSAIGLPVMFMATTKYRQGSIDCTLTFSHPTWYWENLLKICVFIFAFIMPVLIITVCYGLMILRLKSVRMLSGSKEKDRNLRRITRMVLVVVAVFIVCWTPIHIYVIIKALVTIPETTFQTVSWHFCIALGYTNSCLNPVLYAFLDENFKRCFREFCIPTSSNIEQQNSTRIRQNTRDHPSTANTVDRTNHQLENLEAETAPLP

SMILES	Selectivity (M value/N value) [1]	Duration of aversive behavior ([2]; 1 mg/kg via tail vein, 0 to 10 min after formalin administration, control 128.3)	Duration of aversive behavior ([2]; 1 mg/kg via tail vein, 10 to 30 min after formalin administration, control 261.0) [s]	Duration of aversive behavior ([2]; 3 mg/kg via tail vein, 0 to 10 min after formalin administration, control 128.3)	Duration of aversive behavior ([2]; 3 mg/kg via tail vein, 10 to 30 min after formalin administration, control 261.0)
N=C(N)NCCCCCCN[C@@H](Cc1ccc(O)cc1)C(=O)N[C@@H](Cc1ccc(O)cc1)C(=O)N[C@@H](CCCNC(=N)N)C(=O)N[C@@H](Cc1c[nH]c2ccccc12)C(N)=O [Example 1, N-α-6-Guanidinohexyl-L-tyrosyl-L-tyrosyl-L-arginyl-L-tryptophanamide]	93	80.8** sec	163.8	41.00** sec	112.8** sec
Cc1cc(C[C@H](NCCCCCCNC(=N)N)C(=O)N[C@@H](Cc2ccc(O)cc2)C(=O)N[C@@H](CCCNC(=N)N)C(=O)N[C@H](C)c2ccc3ccccc3c2)cc(C)c1O [Example 25, N-α-6-Guanidinohexyl-3,5-dimethyl-L-tyrosyl-L-tyrosyl-N-[(R)-1-(2-naphthyl)ethyl]-L-argininamide]	15	–	–	–	–
Cc1cc(C[C@H](NCCCCCCNC(=N)N)C(=O)N[C@@H](Cc2cc(C)c(O)c(C)c2)C(=O)N[C@@H](CCCNC(=N)N)C(=O)N[C@H](C)c2ccc3ccccc3c2)cc(C)c1O [Example 27, N-α-6-Guanidinohexyl-3,5-dimethyl-L-tyrosyl-3,5-dimethyl-L-tyrosyl-N-[(R)-1-(2-naphthyl)ethyl]-L-argininamide]	17	–	–	–	–
